This is an account of results in patent US12077537B2 (Gilead Sciences, Inc., priority 2020, dated 2024).

The test system of the test is HIV-IIIb. Kind of test: Antiviral assay in MT4 cells. It is filed as cell-based. Particulars: Human immunodeficiency virus 1, MT4, 120 h; MT-4 cells mixed with HIV-IIIb at m.o.i. 0.003; 5 days at 37° C.; CellTiter-Glo luminescence; 50% decrease in signal, a measure of HIV-1 replication. The essentials: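 MT-4 cells were infected with HIV-IIIb at m.o.i. 0.003 for 1 hour, then added to 3-fold serially diluted compound (10 concentrations, quadruplicate) in medium with 10% FBS. After 5 days at 37° C, cell viability was read by CellTiter-Glo chemiluminescence.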

Consider `Cc1c(-c2cc3sc(N4CC(C)(O)C4)nc3nc2[C@H](Cc2cc(F)cc(F)c2)NC(=O)Cn2nc(C(F)(F)F)c3c2C(F)(F)[C@@H]2C[C@H]32)ccc2n[nH]c(=O)n12` [Compound 49, 2-((3bS,4aR)-5,5-difluoro-3-(trifluoromethyl)-3b,4,4a,5-tetrahydro-1H-cyclopropa[3,4]cyclopenta[1,2-c]pyrazol-1-yl)-N—((S)-2-(3,5-difluorophenyl)-1-(2-(3-hydroxy-3-methylazetidin-1-yl)-6-(5-methyl-3-oxo-2,3-dihydro-[1,2,4]triazolo[4,3-a]pyridin-6-yl)thiazolo[4,5-b]pyridin-5-yl)ethyl)acetamide], for which the EC50 was 31.7 nM. That is a double-digit nanomolar value.
In the case of `Cn1nc(N)c2cccc(-c3cc4sc(N5CC(C)(O)C5)nc4nc3[C@H](Cc3cc(F)cc(F)c3)NC(=O)Cn3nc(C(F)F)c4c3C3CC3CC4)c21` (stereo partly drawn) [Compound 50, N—((S)-1-(6-(3-amino-1-methyl-1H-indazol-7-yl)-2-(3-hydroxy-3-methylazetidin-1-yl)thiazolo[4,5-b]pyridin-5-yl)-2-(3,5-difluorophenyl)ethyl)-2-(3-(difluoromethyl)-5,5a,6,6a-tetrahydrocyclopropa[g]indazol-1(4H)-yl)acetamide], the EC50 stood at 1.3 nM.
The same measure for `Cn1nc(N)c2cccc(-c3cc4sc(NCC(C)(C)O)nc4nc3[C@H](Cc3cc(F)cc(F)c3)NC(=O)Cn3nc(C(F)(F)F)c4c3C(F)(F)[C@@H]3C[C@H]43)c21` [Compound 51, N—((S)-1-(6-(3-amino-1-methyl-1H-indazol-7-yl)-2-((2-hydroxy-2-methylpropyl)amino)thiazolo[4,5-b]pyridin-5-yl)-2-(3,5-difluorophenyl)ethyl)-2-((3bS,4aR)-5,5-difluoro-3-(trifluoromethyl)-3b,4,4a,5-tetrahydro-1H-cyclopropa[3,4]cyclopenta[1,2-c]pyrazol-1-yl)acetamide]: 9.7 nM.
For the compound `Cn1nc(NS(C)(=O)=O)c2cccc(-c3cc4sc(NCC(C)(C)O)nc4nc3[C@H](Cc3cc(F)cc(F)c3)NC(=O)Cn3nc(C(F)(F)F)c4c3C(F)(F)[C@@H]3C[C@H]43)c21` [Compound 52, 2-((3bS,4aR)-5,5-difluoro-3-(trifluoromethyl)-3b,4,4a,5-tetrahydro-1H-cyclopropa[3,4]cyclopenta[1,2-c]pyrazol-1-yl)-N—((S)-2-(3,5-difluorophenyl)-1-(2-((2-hydroxy-2-methylpropyl)amino)-6-(1-methyl-3-(methylsulfonamido)-1H-indazol-7-yl)thiazolo[4,5-b]pyridin-5-yl)ethyl)acetamide], the EC50 amounted to 9.6 nM.
The same measure for `Cn1nc(NS(C)(=O)=O)c2cccc(-c3cc4sc(N5CC(C)(O)C5)nc4nc3[C@H](Cc3cc(F)cc(F)c3)NC(=O)Cn3nc(C(F)(F)F)c4c3C(F)(F)[C@@H]3C[C@H]43)c21` [Compound 53, 2-((3bS,4aR)-5,5-difluoro-3-(trifluoromethyl)-3b,4,4a,5-tetrahydro-1H-cyclopropa[3,4]cyclopenta[1,2-c]pyrazol-1-yl)-N—((S)-2-(3,5-difluorophenyl)-1-(2-(3-hydroxy-3-methylazetidin-1-yl)-6-(1-methyl-3-(methylsulfonamido)-1H-indazol-7-yl)thiazolo[4,5-b]pyridin-5-yl)ethyl)acetamide]: 20.4 nM; for `Cc1c(-c2cc3sc(NCC(C)(C)O)nc3nc2[C@H](Cc2cc(F)cc(F)c2)NC(=O)Cn2nc(C(F)(F)F)c3c2C(F)(F)[C@@H]2C[C@H]32)ccc2n[nH]c(=O)n12` [Compound 54, 2-((3bS,4aR)-5,5-difluoro-3-(trifluoromethyl)-3b,4,4a,5-tetrahydro-1H-cyclopropa[3,4]cyclopenta[1,2-c]pyrazol-1-yl)-N—((S)-2-(3,5-difluorophenyl)-1-(2-((2-hydroxy-2-methylpropyl)amino)-6-(5-methyl-3-oxo-2,3-dihydro-[1,2,4]triazolo[4,3-a]pyridin-6-yl)thiazolo[4,5-b]pyridin-5-yl)ethyl)acetamide]: 26.2 nM.
The figure for `Cn1nc(NS(C)(=O)=O)c2cccc(-c3cc4sc(NCC(C)(C)O)nc4nc3[C@H](Cc3cc(F)cc(F)c3)NC(=O)Cn3nc(C(F)F)c4c3C(F)(F)[C@@H]3C[C@H]43)c21` [Compound 55, 2-((3bS,4aR)-3-(difluoromethyl)-5,5-difluoro-3b,4,4a,5-tetrahydro-1H-cyclopropa[3,4]cyclopenta[1,2-c]pyrazol-1-yl)-N—((S)-2-(3,5-difluorophenyl)-1-(2-((2-hydroxy-2-methylpropyl)amino)-6-(1-methyl-3-(methylsulfonamido)-1H-indazol-7-yl)thiazolo[4,5-b]pyridin-5-yl)ethyl)acetamide] is 13.5 nM; for `Cn1nc(NS(C)(=O)=O)c2cccc(-c3cc4sc(NCC(C)(C)O)nc4nc3[C@H](Cc3cc(F)cc(F)c3)NC(=O)Cn3nc(C(F)F)c4c3C(F)(F)CCC4(F)F)c21` [Compound 56, (S)-2-(3-(difluoromethyl)-4,4,7,7-tetrafluoro-4,5,6,7-tetrahydro-1H-indazol-1-yl)-N-(2-(3,5-difluorophenyl)-1-(2-((2-hydroxy-2-methylpropyl)amino)-6-(1-methyl-3-(methylsulfonamido)-1H-indazol-7-yl)thiazolo[4,5-b]pyridin-5-yl)ethyl)acetamide] it is 55.8 nM.
The same measure for `Cn1nc(N)c2cccc(-c3cc4sc(NCC(C)(C)O)nc4nc3[C@H](Cc3cc(F)cc(F)c3)NC(=O)Cn3nc(C(F)F)c4c3C(F)(F)[C@@H]3C[C@H]43)c21` [Compound 57, N—((S)-1-(6-(3-amino-1-methyl-1H-indazol-7-yl)-2-((2-hydroxy-2-methylpropyl)amino)thiazolo[4,5-b]pyridin-5-yl)-2-(3,5-difluorophenyl)ethyl)-2-((3bS,4aR)-3-(difluoromethyl)-5,5-difluoro-3b,4,4a,5-tetrahydro-1H-cyclopropa[3,4]cyclopenta[1,2-c]pyrazol-1-yl)acetamide]: 13 nM.
`Cn1nc(N)c2cccc(-c3cc4sc(N5CC(C)(O)C5)nc4nc3[C@H](Cc3cc(F)cc(F)c3)NC(=O)Cn3nc(C(F)(F)F)c4c3C(F)(F)[C@@H]3C[C@H]43)c21` [Compound 58, N—((S)-1-(6-(3-amino-1-methyl-1H-indazol-7-yl)-2-(3-hydroxy-3-methylazetidin-1-yl)thiazolo[4,5-b]pyridin-5-yl)-2-(3,5-difluorophenyl)ethyl)-2-((3bS,4aR)-5,5-difluoro-3-(trifluoromethyl)-3b,4,4a,5-tetrahydro-1H-cyclopropa[3,4]cyclopenta[1,2-c]pyrazol-1-yl)acetamide] yielded an EC50 of 14.7 nM.
On to `Cn1nc(N)c2cccc(-c3cc4sc(N5CC(C)(O)C5)nc4nc3[C@H](Cc3cc(F)cc(F)c3)NC(=O)Cn3nc(C(F)F)c4c3C(F)(F)[C@@H]3C[C@H]43)c21` [Compound 59, N—((S)-1-(6-(3-amino-1-methyl-1H-indazol-7-yl)-2-(3-hydroxy-3-methylazetidin-1-yl)thiazolo[4,5-b]pyridin-5-yl)-2-(3,5-difluorophenyl)ethyl)-2-((3bS,4aR)-3-(difluoromethyl)-5,5-difluoro-3b,4,4a,5-tetrahydro-1H-cyclopropa[3,4]cyclopenta[1,2-c]pyrazol-1-yl)acetamide], for which the EC50 worked out at 16.3 nM.
For the compound `Cn1nc(N)c2cccc(-c3cc4sc(NCC(C)(C)O)nc4nc3[C@H](Cc3cc(F)cc(F)c3)NC(=O)Cn3nc(C(F)F)c4c3C(F)(F)CCC4(F)F)c21` [Compound 60, (S)—N-(1-(6-(3-amino-1-methyl-1H-indazol-7-yl)-2-((2-hydroxy-2-methylpropyl)amino)thiazolo[4,5-b]pyridin-5-yl)-2-(3,5-difluorophenyl)ethyl)-2-(3-(difluoromethyl)-4,4,7,7-tetrafluoro-4,5,6,7-tetrahydro-1H-indazol-1-yl)acetamide], the EC50 came out at 60 nM.
In the case of `CCS(=O)(=O)Nc1nn(C)c2c(-c3cc4sc(NCC(C)(C)O)nc4nc3[C@H](Cc3cc(F)cc(F)c3)NC(=O)Cn3nc(C(F)F)c4c3C(F)(F)[C@@H]3C[C@H]43)cccc12` [Compound 61, 2-((3bS,4aR)-3-(difluoromethyl)-5,5-difluoro-3b,4,4a,5-tetrahydro-1H-cyclopropa[3,4]cyclopenta[1,2-c]pyrazol-1-yl)-N—((S)-2-(3,5-difluorophenyl)-1-(6-(3-(ethylsulfonamido)-1-methyl-1H-indazol-7-yl)-2-((2-hydroxy-2-methylpropyl)amino)thiazolo[4,5-b]pyridin-5-yl)ethyl)acetamide], the EC50 is 10 nM.
In turn, `Cn1nc(NS(=O)(=O)C2CC2)c2cccc(-c3cc4sc(NCC(C)(C)O)nc4nc3[C@H](Cc3cc(F)cc(F)c3)NC(=O)Cn3nc(C(F)F)c4c3C(F)(F)[C@@H]3C[C@H]43)c21` [Compound 62, N—((S)-1-(6-(3-(cyclopropanesulfonamido)-1-methyl-1H-indazol-7-yl)-2-((2-hydroxy-2-methylpropyl)amino)thiazolo[4,5-b]pyridin-5-yl)-2-(3,5-difluorophenyl)ethyl)-2-((3bS,4aR)-3-(difluoromethyl)-5,5-difluoro-3b,4,4a,5-tetrahydro-1H-cyclopropa[3,4]cyclopenta[1,2-c]pyrazol-1-yl)acetamide] displayed an EC50 of 7.9 nM.
The compound `CCS(=O)(=O)Nc1nn(C)c2c(-c3cc4sc(NCC(C)(C)O)nc4nc3[C@H](Cc3cc(F)cc(F)c3)NC(=O)Cn3nc(C(F)(F)F)c4c3C(F)(F)[C@@H]3C[C@H]43)cccc12` [Compound 63, 2-((3bS,4aR)-5,5-difluoro-3-(trifluoromethyl)-3b,4,4a,5-tetrahydro-1H-cyclopropa[3,4]cyclopenta[1,2-c]pyrazol-1-yl)-N—((S)-2-(3,5-difluorophenyl)-1-(6-(3-(ethylsulfonamido)-1-methyl-1H-indazol-7-yl)-2-((2-hydroxy-2-methylpropyl)amino)thiazolo[4,5-b]pyridin-5-yl)ethyl)acetamide] came in with an EC50 of 7.2 nM. This EC50 and that of the compound before are within 1.5-fold of each other.
